One compound from paper PMC6003189, “Molecular and biochemical characterization of a novel isoprene synthase from Metrosideros polymorpha” (BMC Plant Biology, 2018) can be followed below.

This assay relates to T1, MpIspS.
T1 construct: gene IspS
The following applies: 50 mM MOPS pH 6.0, 5 mM Mn^2+, 50 °C, 10 min; fit below 15 mM DMAPP.

One may read the Km as the substrate concentration at which the rate is half of its maximum.

With `CC(C)=CCOP(=O)(O)OP(=O)(O)O` [DMAPP], the Michaelis constant (Km) amounted to 8.11 mM.
